One data set concerns Escherichia coli. The data set can be described thus: Genotoxicity against Escherichia coli PQ37 at 50 ug/disk. Type of data set: toxicity, organism-based.
For a further data set, the system named is Candida albicans. Briefly: Antifungal activity against Candida albicans ATCC 32354. Type of data set: functional, organism-based.
The subject of another data set is Pseudomonas aeruginosa. Briefly: Antibacterial activity against Pseudomonas aeruginosa ATCC 27853. Type of data set: functional, organism-based.
The subject of a further data set is Staphylococcus aureus. Briefly: Antibacterial activity against Staphylococcus aureus ATCC 29213. Type of data set: functional, organism-based.
A further data set concerns Bacillus subtilis. Briefly: Antibacterial activity against Bacillus subtilis ATCC 6633 at 10 ug/disk. Type of data set: functional, organism-based.

Structures are written as SMILES. Active and inactive are the calls of the source. The rule behind the calls is not given here.

As to `C/C(C=O)=C1\[C@@H](O)C[C@]1(C)[C@H]1CC(C)(C)C[C@@H]1O` [ILLUDOSIN], in the data set on Escherichia coli, the result was Active. Besides, the result in the data set on Candida albicans, in the data set with Pseudomonas aeruginosa and in the data set on Staphylococcus aureus was inactive. Besides, the result with Bacillus subtilis was Active.
In the case of `CC1(C)C[C@H]2[C@@H](CC[C@@]2(C)O)[C@]2(C)CC2[C@H]1OC(=O)c1cc([N+](=O)[O-])cc([N+](=O)[O-])c1` (stereo not given in full), the Activity entry with Escherichia coli is on record as “Not Active”. The result with Candida albicans, in the data set with Pseudomonas aeruginosa, in the data set on Staphylococcus aureus and in the data set on Bacillus subtilis was inactive.
Take `C/C(C=O)=C1\C(=O)C[C@]1(C)[C@H]1CC(C)(C)CC1=O`: the Activity result in the data set with Escherichia coli was “Not Active”. Also, the result in the data set on Candida albicans, with Pseudomonas aeruginosa, in the data set with Staphylococcus aureus and with Bacillus subtilis was inactive.
Take `C/C(CO)=C1\[C@@H](O)C[C@]1(C)[C@H]1CC(C)(C)C[C@@H]1O`: in the data set with Escherichia coli, the Activity result is on record as “Not Active”. Besides, the outcome in the data set with Candida albicans, with Pseudomonas aeruginosa, in the data set with Staphylococcus aureus and in the data set with Bacillus subtilis was inactive.

(Values after ChEMBL document CHEMBL1155632, “Sesquiterpenes from the basidiomycete Omphalotus illudens” (J Nat Prod, 2000).)
